In US6433175B1, “Pyrroloindoles, pyridoindoles and azepinoindoles as 5-ht2c agonists” (Vernalis Research Limited, priority 1998, dated 2002):
Counter-ions that a name gives are not always drawn. Like-named read-outs stand apart in the source and are kept apart here.

Legend:
[1] = target: T1, human 5-HT2C (Homo sapiens, UniProt P28335); experiment: Functional activity, FLIPR calcium assay, CHO cells expressing human 5-HT2C; type: cell-based; parameters: expressed in transfected cells; host or cells: CHO cells; conditions: for EC50: CHO cells; for h5-HT2c Relative Efficacy: maximum fluorescent signal relative to 10 μM 5-HT (100%)
T1 sequence (P28335 33-458): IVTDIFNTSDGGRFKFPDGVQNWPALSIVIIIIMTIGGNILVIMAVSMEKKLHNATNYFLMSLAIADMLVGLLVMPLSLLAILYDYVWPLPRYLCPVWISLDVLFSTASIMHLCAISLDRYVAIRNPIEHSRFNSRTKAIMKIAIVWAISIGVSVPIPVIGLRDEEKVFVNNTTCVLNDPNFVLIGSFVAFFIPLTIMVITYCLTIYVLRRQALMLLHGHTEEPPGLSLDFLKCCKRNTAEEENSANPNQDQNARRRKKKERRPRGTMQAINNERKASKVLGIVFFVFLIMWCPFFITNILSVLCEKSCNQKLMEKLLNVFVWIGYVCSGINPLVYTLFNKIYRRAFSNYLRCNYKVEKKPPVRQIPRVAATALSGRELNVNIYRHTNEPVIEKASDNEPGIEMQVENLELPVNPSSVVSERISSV
Protocol: (§1) The functional activity of compounds of formula (I) was assayed using a Fluorimetric Imaging Plate reader (FLIPR). CHO cells expressing the human 5-HT2C or human 5-HT2A receptors were counted and plated into standard 96 well microtitre plates on the day before testing to give a confluent monolayer. The cells were then dye loaded with the calcium sensitive dye, Fluo-3-AM. Unincorporated dye was removed using an automated cell washer to leave a total volume of 100 μL/well of assay buffer (Hanks balanced salt solution containing 20 mM Hepes and 2.5 mM probenecid). The drug (dissolved in 50 μL of the assay buffer) was added at a rate of 70 μL/sec to each well of the FLIPR 96 well plate during fluorescence measurements. The measurements were taken at 1 sec intervals and the maximum fluorescent signal was measured (approx 10-15 secs after drug addition) and compared with the response produced by 10 μM 5-HT (defined as 100%) to which it was expressed as a percentage response (relative efficacy). Dose response curves were constructed using Graphpad Prism (Graph Software Inc.).

[2] = target: T2, 5-HT2A receptor (Homo sapiens, UniProt P28223); experiment: Functional activity, FLIPR calcium assay, CHO cells expressing human 5-HT2A; type: cell-based; parameters: expressed in transfected cells; host or cells: CHO cells; conditions: for EC50: CHO cells; for h5-HT2A Relative Efficacy: maximum fluorescent signal relative to 10 μM 5-HT (100%)
Protocol: as §1

[3] = target: T1, human 5-HT2C; experiment: Binding to 5-HT2C receptor, [3H]-5-HT, CHO cell line; parameters: expressed in transfected cells; host or cells: CHO cell line
Protocol: (§2) The binding of compounds of formula (I) to serotonin receptors was determined in vitro by standard methods. The preparations were investigated in accordance with the assays given hereinafter.
Method (a): For the binding to the 5-HT2C receptor the 5-HT2C receptors were radiolabeled with [^3H]-5-HT. The affinity of the compounds for 5-HT2C receptors in a CHO cell line was determined according to the procedure of D. Hoyer, G. Engel and H. O. Kalkman, European J. Pharmacol., 1985, 118, 13-23.

[4] = target: T3, human 5-HT2B receptors (Homo sapiens, UniProt P41595); experiment: Binding to 5-HT2B receptor, [3H]-5-HT, CHO cell line
T3 construct: expressed in transfected cells; host or cells: CHO cell line
Protocol: as §2
Method (b): For the binding to the 5-HT2B receptor the 5-HT2B receptors were radiolabeled with [^3H]-5-HT. The affinity of the compounds for human 5-HT2B receptors in a CHO cell line was determined according to the procedure of K. Schmuck, C. Ullmer, P. Engels and H. Lubbert, FEBS Lett., 1994, 342, 85-90.

[5] = target: T2, 5-HT2A receptor; experiment: Binding to 5-HT2A receptor, [125I]-DOI, CHO cell line; parameters: expressed in transfected cells; host or cells: CHO cell line
Protocol: as §2
Method (c): For the binding to the 5-HT2A receptor the 5-HT2A receptors were radiolabeled with [^125I]-DOI. The affinity of the compounds for 5-HT2A receptors in a CHO cell line was determined according to the procedure of D. J. McKenna and S. J. Peroutka, J. Neurosci., 1989, 9, 3482-90.

[6] = system: rats; experiment: In vivo efficacy: 5-HT2C syndrome in rats; parameters: species or system rat; conditions: 20 mg/kg s.c.
Protocol: The in vivo efficacy of 5-HT2C agonists was assessed by the ability of the compounds to induce three specific behaviours (5HT2C Syndrome) in rats.
The 5-HT2c syndrome is a rapid screening method to assess the in vivo efficacy of 5-HT2c agonists through their ability to induce three specific behaviours in rats. The animals were dosed with either a positive control (mCPP), test compound or vehicle, either sub-cutaneously or p.o. The animals were observed on an open bench, typically 30, 60 and 180 minutes after dosing and the degree of syndrome was assessed over a two minute period on a scale of 0-3 depending on the presence and severity of splayed limbs, hunched posture and retro-pulsion, the three specific behaviours which constitute the syndrome. Data were analysed using Kruskal-Wallis Analysis of Variance followed with appropriate post-hoc tests. All statistical analysis were conducted using Excel version 7.0 (Microsoft Corp.) and Statistica version 5.0 (Statsoft, Inc.).

[7] = cited from earlier work
[8] = system: rats; conditions: cited from earlier work
[9] = [3H]-5-HT, CHO cell line, read-out: Ki (2C)
[10] = [3H]-5-HT, human receptor, CHO cell line, read-out: Ki (2B)
[11] = [125I]-DOI, CHO cell line, read-out: Ki (2A)

T2 sequence (P28223 whole entry): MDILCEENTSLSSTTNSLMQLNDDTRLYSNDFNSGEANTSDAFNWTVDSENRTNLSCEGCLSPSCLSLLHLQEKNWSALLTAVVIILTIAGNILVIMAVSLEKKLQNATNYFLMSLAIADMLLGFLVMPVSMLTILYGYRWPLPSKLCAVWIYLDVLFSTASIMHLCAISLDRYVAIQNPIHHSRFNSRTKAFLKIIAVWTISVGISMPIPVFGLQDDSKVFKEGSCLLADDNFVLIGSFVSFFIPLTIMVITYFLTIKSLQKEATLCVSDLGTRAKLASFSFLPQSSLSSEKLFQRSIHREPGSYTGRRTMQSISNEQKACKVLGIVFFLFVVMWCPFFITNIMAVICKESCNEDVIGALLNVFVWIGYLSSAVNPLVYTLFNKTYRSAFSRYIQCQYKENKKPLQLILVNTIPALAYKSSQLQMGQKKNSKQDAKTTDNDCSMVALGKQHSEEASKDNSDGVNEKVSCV
T3 sequence (P41595 whole entry): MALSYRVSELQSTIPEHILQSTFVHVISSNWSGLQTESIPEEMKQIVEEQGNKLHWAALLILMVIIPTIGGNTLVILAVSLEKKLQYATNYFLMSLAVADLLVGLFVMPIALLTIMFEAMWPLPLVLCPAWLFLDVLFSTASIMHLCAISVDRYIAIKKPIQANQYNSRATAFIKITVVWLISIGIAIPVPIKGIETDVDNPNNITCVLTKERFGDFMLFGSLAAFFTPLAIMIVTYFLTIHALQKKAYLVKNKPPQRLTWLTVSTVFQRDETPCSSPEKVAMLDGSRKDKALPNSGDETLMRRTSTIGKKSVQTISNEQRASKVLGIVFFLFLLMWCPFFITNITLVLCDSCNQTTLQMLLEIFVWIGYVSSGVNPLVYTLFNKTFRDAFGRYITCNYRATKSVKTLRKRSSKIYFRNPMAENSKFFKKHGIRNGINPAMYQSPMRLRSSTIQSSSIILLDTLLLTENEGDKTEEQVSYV

| Structure (SMILES) | melting point | EC50 ([1]; h5-HT2c EC50, FLIPR) | h5-HT2c Relative Efficacy [1] | EC50 ([2]; FLIPR, read-out: h5-HT2A EC50) | h5-HT2A Relative Efficacy [2] | also measured |
| --- | --- | --- | --- | --- | --- | --- |
| CC(N)Cc1c2n(c3ccc(Cl)cc13)CCC2 (racemic) (as salt: hydrochloride) [Example 1, (RS)-1-(7-Chloro-2,3-dihydro-1H-pyrrolo[1,2-a]indol-9-yl)-2-propylamine hydrochloride] | 272 to 273 °C |  |  |  |  |  |
| COc1ccc2c(c1)c(CC(C)NCCC(C)C)c1n2CCC1 (racemic) (as salt: hydrochloride) | 118 to 121 °C |  |  |  |  |  |
| CC(N)Cc1c2n(c3ccc(OCc4ccccc4)cc13)CCC2 (racemic) (as salt: fumarate) | 146 to 147 °C (dec.) |  |  |  |  |  |
| COc1ccc2c(c1)c(CC(C)NCC(C)(C)C)c1n2CCC1 (racemic) (as salt: hydrochloride) | 226 to 228 °C |  |  |  |  |  |
| Cc1ccc2c(c1)c(CC(C)N)c1n2CCC1 (racemic) [Example 6, (RS)-1-(7-Methyl-2,3-dihydro-1H-pyrrolo[1,2-a]indol-9-yl)-2-propylamine fumarate] |  | 348 nM | 56% | > 10000 nM |  |  |
| COc1ccc2c(c1)c(CC(C)N)c1n2CCC1 (single isomer, unassigned; enantiomer 1) [Example 8] |  | 33 nM | 58% | 921 nM | 36% |  |
| COc1ccc2c(c1)c(CC(C)N)c1n2CCC1 (racemic) (as salt: fumarate) [Example 3, (RS)-1-(7-Methoxy-2,3-dihydro-1H-pyrrolo[1,2-a]indol-9-yl)-2-propylamine fumarate] | 194 to 196 °C |  |  |  |  |  |
| CC(N)Cc1c2n(c3cc(F)c(F)cc13)CCC2 (racemic) [Example 2, (RS)-1-(6,7-Difluoro-2,3-dihydro-1H-pyrrolo[1,2-a]indol-9-yl)-2-propylamine hydrochloride] |  |  | 38% |  | 12% | EC50 ([1]; FLIPR, read-out: h5-HT2c EC50): 147 nM; Ki [3]: 97 nM; Ki [4]: 102 nM; EC50 ([2]; h5-HT2A EC50, FLIPR): > 1000 nM; Ki [5]: 257 nM |
| CC(N)Cc1c2n(c3cc(F)c(F)cc13)CCC2 (racemic) (as salt: hydrochloride) [Example 2, (RS)-1-(6,7-Difluoro-2,3-dihydro-1H-pyrrolo[1,2-a]indol-9-yl)-2-propylamine hydrochloride] | 264 to 266 °C |  |  |  |  |  |
| CC(N)Cc1c2n(c3cccc(Cl)c13)CCC2 (racemic) (as salt: fumarate) | 207 to 208 °C |  |  |  |  |  |
| COc1ccc2c(c1)c(CC(C)N)c1n2CCC1 (racemic) [Example 3, (RS)-1-(7-Methoxy-2,3-dihydro-1H-pyrrolo[1,2-a]indol-9-yl)-2-propylamine fumarate] |  | 32 nM | 63% | 636 nM | 22% | time for which significant pharmacological efficacy is maintained (5-HT2C syndrome) [6]: at least 180 minutes; Ki [3, 9]: 118 nM; Ki [4, 10]: 220 nM; Ki [5, 11]: 151 nM |
| CC(N)Cc1c2n(c3ccc(Cl)cc13)CCC2 (racemic) [Example 1, (RS)-1-(7-Chloro-2,3-dihydro-1H-pyrrolo[1,2-a]indol-9-yl)-2-propylamine hydrochloride] |  | 96 nM | 68% | 3240 nM | 33% | Ki [3, 9]: 110 nM; Ki [4, 10]: 229 nM; Ki [5, 11]: 457 nM |
| CSc1ccc2c(c1)c(CC(C)N)c1n2CCC1 (racemic) (as salt: fumarate) [Example 11, (RS)-1-(7-Methylthio-2,3-dihydro-1H-pyrrolo[1,2-a]indol-9-yl)-2-propylamine fumarate] | 204 to 206 °C (dec.) |  |  |  |  |  |
| COc1ccc2c(c1)c(CC(C)N)c1n2CCC1 (single isomer, unassigned; enantiomer 2) [Example 9, Enantiomer 2 of 1-(7-Methoxy-2,3-dihydro-1H-pyrrolo[1,2-a]indol-9-yl)-2-propylamine fumarate] |  | 7 nM | 81% | 792 nM | 40% |  |
| Cc1ccc2c(c1)c(CC(C)N)c1n2CCC1 (racemic) (as salt: fumarate) [Example 6, (RS)-1-(7-Methyl-2,3-dihydro-1H-pyrrolo[1,2-a]indol-9-yl)-2-propylamine fumarate] | 138 to 139 °C |  |  |  |  |  |
| Clc1cccc(N2CCNCC2)c1 [mCPP, m-chlorophenylpiperazine] |  |  |  |  |  | appetite and body weight of obese subjects ([7]; obese male and female subjects, subchronic treatment for 14 days): decreased the appetite and body weight; food intake in female volunteers ([7]; single dose, female volunteers): decreased food intake; food intake in rats [8]: reduce food intake |
| COc1ccc2c(c1)c(CC(C)NCC1CCCCC1)c1n2CCC1 (racemic) (as salt: hydrochloride) | 210 to 213 °C |  |  |  |  |  |
| CC(N)Cc1c2n(c3ccc(Br)cc13)CCC2 (racemic) [Example 5, (RS)-1-(7-Bromo-2,3-dihydro-1H-pyrrolo[1,2-a]indol-9-yl)-2-propylamine fumarate] |  | 94 nM | 69% | 4020 nM | 33% | Ki [3, 9]: 81 nM; Ki [4, 10]: 122 nM; Ki [5, 11]: 448 nM |
| CSc1ccc2c(c1)c(CC(C)N)c1n2CCC1 (racemic) [Example 11, (RS)-1-(7-Methylthio-2,3-dihydro-1H-pyrrolo[1,2-a]indol-9-yl)-2-propylamine fumarate] |  | 8 nM | 80% | > 10000 nM |  | Ki [3, 9]: 84 nM; Ki [4, 10]: 115 nM; Ki [5, 11]: 316 nM |
| CC(N)Cc1c2n(c3cc4c(cc13)OCO4)CCC2 (racemic) [Example 7, (RS)-1-[6,7-(Methylenedioxy)-2,3-dihydro-1H-pyrrolo[1,2-a]indol-9-yl]-2-propylamine fumarate] |  | 227 nM | 59% | 2620 nM | 37% |  |
| COc1ccc2c(c1)c(CC(C)NCC1CC1)c1n2CCC1 (racemic) (as salt: hydrochloride) | 149 to 151 °C |  |  |  |  |  |
